{"source": "patent US11634404B2", "about": "(priority 2016, dated 2023)", "format_in_all_cases": "cell-based", "key": {"panel of 168 GPCRs [1]": {"molecular_target": "panel of 168 GPCRs (Homo sapiens, UniProt P25106)", "settings": "GPCR CXCR7; agonist, 10 μM"}, "panel of 168 GPCRs [2]": {"molecular_target": "panel of 168 GPCRs (Homo sapiens, UniProt P30559)", "settings": "GPCR OXTR; agonist, 10 μM"}, "panel of 168 GPCRs [3]": {"system": "panel of 168 GPCRs", "settings": "GPCR DRD2S; agonist, 10 μM"}, "panel of 168 GPCRs [4]": {"molecular_target": "panel of 168 GPCRs (Homo sapiens, UniProt Q16581)", "settings": "GPCR C3AR1; agonist, 10 μM"}, "panel of 168 GPCRs [5]": {"molecular_target": "panel of 168 GPCRs (Homo sapiens, UniProt Q9UBY5)", "settings": "GPCR EDG7; agonist, 10 μM"}, "panel of 168 GPCRs [6]": {"molecular_target": "panel of 168 GPCRs (Homo sapiens, UniProt P28335)", "sequence (P28335 33-458 limits assumed)": "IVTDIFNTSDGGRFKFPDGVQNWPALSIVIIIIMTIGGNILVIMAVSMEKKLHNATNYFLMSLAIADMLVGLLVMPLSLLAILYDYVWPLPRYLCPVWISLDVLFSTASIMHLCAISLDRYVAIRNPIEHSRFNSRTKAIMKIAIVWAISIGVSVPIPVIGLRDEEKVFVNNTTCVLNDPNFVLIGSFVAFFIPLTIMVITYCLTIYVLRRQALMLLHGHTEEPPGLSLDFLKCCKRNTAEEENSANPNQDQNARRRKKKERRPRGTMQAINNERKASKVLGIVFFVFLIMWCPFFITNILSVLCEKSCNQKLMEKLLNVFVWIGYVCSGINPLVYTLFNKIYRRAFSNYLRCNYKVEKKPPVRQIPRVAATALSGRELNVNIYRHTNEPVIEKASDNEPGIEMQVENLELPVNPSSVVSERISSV", "settings": "GPCR HTR2C; agonist, 10 μM"}, "panel of 168 GPCRs [7]": {"molecular_target": "panel of 168 GPCRs (Homo sapiens, UniProt P32248)", "sequence (P32248 25-378 limits assumed)": "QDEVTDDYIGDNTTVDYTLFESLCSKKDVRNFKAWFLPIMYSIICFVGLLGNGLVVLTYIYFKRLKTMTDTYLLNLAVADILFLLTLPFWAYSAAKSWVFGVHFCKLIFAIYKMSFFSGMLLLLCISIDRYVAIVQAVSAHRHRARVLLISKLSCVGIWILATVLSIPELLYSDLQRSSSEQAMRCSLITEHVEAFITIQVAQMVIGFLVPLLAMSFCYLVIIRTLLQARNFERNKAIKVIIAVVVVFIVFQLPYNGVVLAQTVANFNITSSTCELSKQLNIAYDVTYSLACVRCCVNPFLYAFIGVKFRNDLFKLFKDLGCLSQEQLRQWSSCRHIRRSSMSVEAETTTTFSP", "settings": "GPCR CCR7; agonist, 10 μM"}, "panel of 168 GPCRs [8]": {"molecular_target": "panel of 168 GPCRs (Homo sapiens, UniProt P21730)", "settings": "GPCR C5AR1; agonist, 10 μM"}, "panel of 168 GPCRs [9]": {"molecular_target": "panel of 168 GPCRs (Homo sapiens, UniProt P33032)", "settings": "GPCR MC5R; agonist, 10 μM"}, "panel of 168 GPCRs [10]": {"molecular_target": "panel of 168 GPCRs (Homo sapiens, UniProt Q96LB1)", "settings": "GPCR MRGPRX2; agonist, 10 μM"}, "panel of 168 GPCRs [11]": {"molecular_target": "panel of 168 GPCRs (Homo sapiens, UniProt P25116)", "sequence (P25116 22-425 limits assumed)": "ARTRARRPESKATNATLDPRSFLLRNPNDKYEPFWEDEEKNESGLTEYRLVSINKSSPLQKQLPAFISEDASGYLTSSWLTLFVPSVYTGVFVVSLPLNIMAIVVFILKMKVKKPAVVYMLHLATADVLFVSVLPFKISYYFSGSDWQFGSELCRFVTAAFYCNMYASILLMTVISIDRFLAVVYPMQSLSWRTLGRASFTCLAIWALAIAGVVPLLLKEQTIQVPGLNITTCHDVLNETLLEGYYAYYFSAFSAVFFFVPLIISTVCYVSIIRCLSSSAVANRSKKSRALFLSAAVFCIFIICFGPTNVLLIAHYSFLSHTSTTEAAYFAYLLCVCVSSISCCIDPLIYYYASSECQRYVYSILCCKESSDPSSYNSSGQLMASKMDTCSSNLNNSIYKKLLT", "settings": "GPCR F2R; agonist, 10 μM"}, "panel of 168 GPCRs [12]": {"molecular_target": "panel of 168 GPCRs (Homo sapiens, UniProt P46663)", "settings": "GPCR BDKRB1; agonist, 10 μM"}, "panel of 168 GPCRs [13]": {"molecular_target": "panel of 168 GPCRs (Homo sapiens, UniProt P47898)", "settings": "GPCR HTR5A; agonist, 10 μM"}, "panel of 168 GPCRs [14]": {"molecular_target": "panel of 168 GPCRs (Homo sapiens, UniProt O00574)", "settings": "GPCR CXCR6; agonist, 10 μM"}, "panel of 168 GPCRs [15]": {"molecular_target": "panel of 168 GPCRs (Homo sapiens, UniProt P25101)", "sequence (P25101 21-427 limits assumed)": "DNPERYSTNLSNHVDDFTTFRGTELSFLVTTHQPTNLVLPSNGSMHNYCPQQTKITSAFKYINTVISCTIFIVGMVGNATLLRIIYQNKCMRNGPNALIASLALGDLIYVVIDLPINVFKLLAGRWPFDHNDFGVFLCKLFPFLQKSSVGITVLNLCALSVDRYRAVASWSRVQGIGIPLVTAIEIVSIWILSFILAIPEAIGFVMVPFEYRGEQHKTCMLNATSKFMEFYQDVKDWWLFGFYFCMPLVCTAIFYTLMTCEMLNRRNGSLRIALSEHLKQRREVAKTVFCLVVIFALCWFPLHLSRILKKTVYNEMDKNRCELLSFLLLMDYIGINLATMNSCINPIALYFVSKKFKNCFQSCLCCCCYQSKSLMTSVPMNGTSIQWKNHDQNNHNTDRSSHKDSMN", "settings": "GPCR EDNRA; agonist, 10 μM"}, "panel of 168 GPCRs [16]": {"molecular_target": "panel of 168 GPCRs (Homo sapiens, UniProt P21731)", "settings": "GPCR TBXA2R; agonist, 10 μM"}, "panel of 168 GPCRs [17]": {"molecular_target": "panel of 168 GPCRs (Homo sapiens, UniProt Q9NSD7)", "settings": "GPCR RXFP3; agonist, 10 μM"}, "panel of 168 GPCRs [18]": {"molecular_target": "panel of 168 GPCRs (Homo sapiens, UniProt Q9H244)", "settings": "GPCR P2RY12; agonist, 10 μM"}, "panel of 168 GPCRs [19]": {"molecular_target": "panel of 168 GPCRs (Homo sapiens, UniProt P32238)", "settings": "GPCR CCKAR; agonist, 10 μM"}, "panel of 168 GPCRs [20]": {"molecular_target": "panel of 168 GPCRs (Homo sapiens, UniProt P25025)", "settings": "GPCR CXCR2; agonist, 10 μM"}, "panel of 168 GPCRs [21]": {"molecular_target": "panel of 168 GPCRs (Homo sapiens, UniProt Q96RI0)", "sequence (Q96RI0 18-385 limits assumed)": "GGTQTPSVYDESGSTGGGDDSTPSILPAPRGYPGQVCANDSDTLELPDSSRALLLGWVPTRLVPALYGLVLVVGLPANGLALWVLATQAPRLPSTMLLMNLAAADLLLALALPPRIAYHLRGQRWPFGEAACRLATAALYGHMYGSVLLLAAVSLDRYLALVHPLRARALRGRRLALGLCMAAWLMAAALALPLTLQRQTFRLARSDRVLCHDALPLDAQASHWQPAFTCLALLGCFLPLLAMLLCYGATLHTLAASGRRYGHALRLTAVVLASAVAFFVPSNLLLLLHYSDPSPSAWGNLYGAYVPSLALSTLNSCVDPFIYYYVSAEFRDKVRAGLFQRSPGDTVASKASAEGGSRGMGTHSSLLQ", "settings": "GPCR F2RL3; agonist, 10 μM"}, "panel of 168 GPCRs [22]": {"molecular_target": "panel of 168 GPCRs (Homo sapiens, UniProt P35414)", "settings": "GPCR AGTRL1; agonist, 10 μM"}, "panel of 168 GPCRs [23]": {"molecular_target": "panel of 168 GPCRs (Homo sapiens, UniProt P47211)", "settings": "GPCR GALR1; agonist, 10 μM"}, "panel of 168 GPCRs [24]": {"molecular_target": "panel of 168 GPCRs (Homo sapiens, UniProt P28223)", "settings": "GPCR HTR2A; agonist, 10 μM"}, "panel of 168 GPCRs [25]": {"molecular_target": "panel of 168 GPCRs (Homo sapiens, UniProt P61073)", "settings": "GPCR CXCR4; agonist, 10 μM"}, "panel of 168 GPCRs [26]": {"molecular_target": "panel of 168 GPCRs (Homo sapiens, UniProt P21728)", "settings": "GPCR DRD1; agonist, 10 μM"}, "panel of 168 GPCRs [27]": {"molecular_target": "panel of 168 GPCRs (Homo sapiens, UniProt P30518)", "settings": "GPCR AVPR2; agonist, 10 μM"}, "panel of 168 GPCRs [28]": {"molecular_target": "panel of 168 GPCRs (Homo sapiens, UniProt Q03431)", "sequence (Q03431 27-593 limits assumed)": "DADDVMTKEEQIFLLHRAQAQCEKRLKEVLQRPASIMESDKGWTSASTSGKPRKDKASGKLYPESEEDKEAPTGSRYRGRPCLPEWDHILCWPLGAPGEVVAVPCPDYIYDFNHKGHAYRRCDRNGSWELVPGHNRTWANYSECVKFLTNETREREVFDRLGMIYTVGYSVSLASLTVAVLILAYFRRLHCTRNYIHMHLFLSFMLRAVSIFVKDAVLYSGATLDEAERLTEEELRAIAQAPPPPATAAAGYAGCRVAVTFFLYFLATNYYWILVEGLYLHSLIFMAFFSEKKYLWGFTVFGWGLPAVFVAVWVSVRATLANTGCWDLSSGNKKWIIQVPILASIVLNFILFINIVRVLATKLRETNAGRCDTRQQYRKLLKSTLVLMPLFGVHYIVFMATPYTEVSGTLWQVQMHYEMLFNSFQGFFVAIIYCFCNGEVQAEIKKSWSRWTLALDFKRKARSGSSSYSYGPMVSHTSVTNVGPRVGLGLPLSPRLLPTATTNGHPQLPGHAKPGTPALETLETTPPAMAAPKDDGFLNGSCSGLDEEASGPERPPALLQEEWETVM", "settings": "GPCR PTHR1; agonist, 10 μM"}, "panel of 168 GPCRs [29]": {"molecular_target": "panel of 168 GPCRs (Homo sapiens, UniProt Q5NUL3)", "settings": "GPCR GPR120; agonist, 10 μM"}, "panel of 168 GPCRs [30]": {"molecular_target": "panel of 168 GPCRs (Homo sapiens, UniProt P51582)", "settings": "GPCR P2RY4; agonist, 10 μM"}, "panel of 168 GPCRs [31]": {"molecular_target": "panel of 168 GPCRs (Homo sapiens, UniProt P14416)", "settings": "GPCR DRD2L; agonist, 10 μM"}, "panel of 168 GPCRs [32]": {"molecular_target": "panel of 168 GPCRs (Homo sapiens, UniProt Q96LB2)", "settings": "GPCR MRGPRX1; agonist, 10 μM"}}, "data": [{"smiles": "COc1ccc(OCCN2CCN(C(=O)c3cc4ccccc4[nH]3)CC2)cc1", "note": "[Compound 1, (1H-indol-2-yl)(4-(2-(4-methoxyphenoxy)ethyl)piperazin-1-yl)methanone]", "values": [{"measurement": "β-Arrestin Recruitment activity", "setting": "panel of 168 GPCRs [1]", "value": 3, "unit": "%"}, {"measurement": "β-Arrestin Recruitment activity", "setting": "panel of 168 GPCRs [2]", "value": 0, "unit": "%"}, {"measurement": "β-Arrestin Recruitment activity", "setting": "panel of 168 GPCRs [3]", "value": 43, "unit": "%"}, {"measurement": "β-Arrestin Recruitment activity", "setting": "panel of 168 GPCRs [4]", "value": 0, "unit": "%"}, {"measurement": "β-Arrestin Recruitment activity", "setting": "panel of 168 GPCRs [5]", "value": 6, "unit": "%"}, {"measurement": "β-Arrestin Recruitment activity", "setting": "panel of 168 GPCRs [6]", "value": 6, "unit": "%"}, {"measurement": "β-Arrestin Recruitment activity", "setting": "panel of 168 GPCRs [7]", "value": 4, "unit": "%"}, {"measurement": "β-Arrestin Recruitment activity", "setting": "panel of 168 GPCRs [8]", "value": 0, "unit": "%"}, {"measurement": "β-Arrestin Recruitment activity", "setting": "panel of 168 GPCRs [9]", "value": 5, "unit": "%"}, {"measurement": "β-Arrestin Recruitment activity", "setting": "panel of 168 GPCRs [10]", "value": 5, "unit": "%"}, {"measurement": "β-Arrestin Recruitment activity", "setting": "panel of 168 GPCRs [11]", "value": 5, "unit": "%"}, {"measurement": "β-Arrestin Recruitment activity", "setting": "panel of 168 GPCRs [12]", "value": 0, "unit": "%"}, {"measurement": "β-Arrestin Recruitment activity", "setting": "panel of 168 GPCRs [13]", "value": 3, "unit": "%"}, {"measurement": "β-Arrestin Recruitment activity", "setting": "panel of 168 GPCRs [14]", "value": 8, "unit": "%"}, {"measurement": "β-Arrestin Recruitment activity", "setting": "panel of 168 GPCRs [15]", "value": 0, "unit": "%"}, {"measurement": "β-Arrestin Recruitment activity", "setting": "panel of 168 GPCRs [16]", "value": 0, "unit": "%"}, {"measurement": "β-Arrestin Recruitment activity", "setting": "panel of 168 GPCRs [17]", "value": 5, "unit": "%"}, {"measurement": "β-Arrestin Recruitment activity", "setting": "panel of 168 GPCRs [18]", "value": 4, "unit": "%"}, {"measurement": "β-Arrestin Recruitment activity", "setting": "panel of 168 GPCRs [19]", "value": 0, "unit": "%"}, {"measurement": "β-Arrestin Recruitment activity", "setting": "panel of 168 GPCRs [20]", "value": 6, "unit": "%"}, {"measurement": "β-Arrestin Recruitment activity", "setting": "panel of 168 GPCRs [21]", "value": 4, "unit": "%"}, {"measurement": "β-Arrestin Recruitment activity", "setting": "panel of 168 GPCRs [22]", "value": 4, "unit": "%"}, {"measurement": "β-Arrestin Recruitment activity", "setting": "panel of 168 GPCRs [23]", "value": 4, "unit": "%"}, {"measurement": "β-Arrestin Recruitment activity", "setting": "panel of 168 GPCRs [24]", "value": 4, "unit": "%"}, {"measurement": "β-Arrestin Recruitment activity", "setting": "panel of 168 GPCRs [25]", "value": 17, "unit": "%"}, {"measurement": "β-Arrestin Recruitment activity", "setting": "panel of 168 GPCRs [26]", "value": 0, "unit": "%"}, {"measurement": "β-Arrestin Recruitment activity", "setting": "panel of 168 GPCRs [27]", "value": 4, "unit": "%"}, {"measurement": "β-Arrestin Recruitment activity", "setting": "panel of 168 GPCRs [28]", "value": 0, "unit": "%"}, {"measurement": "β-Arrestin Recruitment activity", "setting": "panel of 168 GPCRs [29]", "value": 12, "unit": "%"}, {"measurement": "β-Arrestin Recruitment activity", "setting": "panel of 168 GPCRs [30]", "value": 13, "unit": "%"}, {"measurement": "β-Arrestin Recruitment activity", "setting": "panel of 168 GPCRs [31]", "value": 37, "unit": "%"}, {"measurement": "β-Arrestin Recruitment activity", "setting": "panel of 168 GPCRs [32]", "value": 3, "unit": "%"}]}]}
